Test system in one data set: not listed separately
As to the kind of experiment: Absorbance and emission maxima of near IR fluorescent probes (Table 1). The class given is physicochemical.
Conditions: not given
Take `Cc1nn(-c2ccc(C(N)=O)c(NCCCOCCOCCOCCOCCOCCCNCc3ccc(C4=C(/C=C/C5=[N+](CCCCS(=O)(=O)[O-])c6ccc(S(=O)(=O)O)cc6C5(C)C)CCC/C4=C\C=C4\N(CCCCS(=O)(=O)O)c5ccc(S(=O)(=O)O)cc5C4(C)C)cc3)c2)c2c1C(=O)CC(C)(C)C2` [Compound 108, 4-(2-((E)-2-((E)-4′-(21-((2-carbamoyl-5-(3,6,6-trimethyl-4-oxo-4,5,6,7-tetrahydro-1H-indazol-1-yl)phenyl)amino)-6,9,12,15,18-pentaoxa-2-azahenicosyl)-6-(2-((E)-3,3-dimethyl-5-sulfo-1-(4-sulfobutyl)indolin-2-ylidene)ethylidene)-3,4,5,6-tetrahydro-[1,1′-biphenyl]-2-yl)vinyl)-3,3-dimethyl-5-sulfo-3H-indol-1-ium-1-yl)butane-1-sulfonate]: the “Abs. Max” value came out at 775 and the “Em. Max” value is 802.

Regarding `Cc1nn(-c2ccc(C(N)=O)c(NCCCOCCOCCOCCOCCOCCCNCc3ccc(C4=C(/C=C/C5=[N+](CCCCS(=O)(=O)[O-])c6ccccc6C5(C)C)CCC/C4=C\C=C4\N(CCCCS(=O)(=O)O)c5ccccc5C4(C)C)cc3)c2)c2c1C(=O)CC(C)(C)C2` [Compound 105, 4-(2-((E)-2-((E)-4′-(21-((2-carbamoyl-5-(3,6,6-trimethyl-4-oxo-4,5,6,7-tetrahydro-1H-indazol-1-yl)phenyl)amino)-6,9,12,15,18-pentaoxa-2-azahenicosyl)-6-(2-((E)-3,3-dimethyl-1-(4-sulfobutyl)indolin-2-ylidene)ethylidene)-3,4,5,6-tetrahydro-[1,1′-biphenyl]-2-yl)vinyl)-3,3-dimethyl-3H-indol-1-ium-1-yl)butane-1-sulfonate], the “Abs. Max” value amounted to 766 and the “Em. Max” value is listed as 796.

Regarding `Cc1nn(-c2ccc(C(N)=O)c(NCCCOCCOCCOCCOCCOCCCNC(=O)c3ccc(C4=C(/C=C/C5=[N+](CCCCS(=O)(=O)[O-])c6ccc7ccccc7c6C5(C)C)CCC/C4=C\C=C4\N(CCCCS(=O)(=O)O)c5ccc6ccccc6c5C4(C)C)cc3)c2)c2c1C(=O)CC(C)(C)C2` [Compound 112], the “Abs. Max” value was 803 and the “Em. Max” value is on record as 829.

As for `Cc1nn(-c2ccc(C(N)=O)c(NCCCOCCOCCOCCOCCOCCCNCc3ccc(C4=C(/C=C/C5=[N+](CCCCS(=O)(=O)[O-])c6ccc7ccccc7c6C5(C)C)CCC/C4=C\C=C4\N(CCCCS(=O)(=O)O)c5ccc6ccccc6c5C4(C)C)cc3)c2)c2c1C(=O)CC(C)(C)C2` [Compound 111], the “Abs. Max” value was 803 and the “Em. Max” value worked out at 828.

In the case of `Cc1nn(-c2ccc(C(N)=O)c(NCCCOCCOCCOCCOCCOCCCNC(=O)c3ccc(C(=C\C=C4\N(CCCCS(=O)(=O)O)c5ccccc5C4(C)C)/C=C/C4=[N+](CCCCS(=O)(=O)[O-])c5ccccc5C4(C)C)cc3)c2)c2c1C(=O)CC(C)(C)C2` [Compound 102, 4-(2-((1E,3Z)-3-(4-((19-((2-carbamoyl-5-(3,6,6-trimethyl-4-oxo-4,5,6,7-tetrahydro-1H-indazol-1-yl)phenyl)amino)-4,7,10,13,16-pentaoxanonadecyl)-carbamoyl)phenyl)-5-((E)-3,3-dimethyl-1-(4-sulfobutyl)indolin-2-ylidene)penta-1,3-dien-1-yl)-3,3-dimethyl-3H-indol-1-ium-1-yl)butane-1-sulfonate], the “Abs. Max” value came out at 643 and the “Em. Max” value amounted to 670.

For the compound `Cc1nn(-c2ccc(C(N)=O)c(NCCCOCCOCCOCCOCCOCCCNC(=O)c3ccc(C4=C(/C=C/C5=[N+](CCCCS(=O)(=O)[O-])c6ccccc6C5(C)C)CCC/C4=C\C=C4\N(CCCCS(=O)(=O)O)c5ccccc5C4(C)C)cc3)c2)c2c1C(=O)CC(C)(C)C2` [Compound 106, 4-(2-((E)-2-((E)-4′-((19-((2-carbamoyl-5-(3,6,6-trimethyl-4-oxo-4,5,6,7-tetrahydro-1H-indazol-1-yl)phenyl)amino)-4,7,10,13,16-pentaoxanonadecyl)carbamoyl)-6-(2-((E)-3,3-dimethyl-1-(4-sulfobutyl)indolin-2-ylidene)ethylidene)-3,4,5,6-tetrahydro-[1,1′-biphenyl]-2-yl)vinyl)-3,3-dimethyl-3H-indol-1-ium-1-yl)butane-1-sulfonate], the “Abs. Max” value is recorded as 766 and the “Em. Max” value was found to be 795.

For the next data set, the system named is eHsp90. As to the kind of experiment: Competition of fluorescent probe binding to eHsp90 on cells by untethered Hsp90 inhibitors. The class given is cell-based. The conditions noted are these: MDA-MB-468 cells, 100 at 25 μM, 45 min; 1 μM HS-10 or 10 μM PUH71. The protocol:
Cells were plated on uncoated 18-mm round coverslips in 12 well plates at 150,000 cells/well and were allowed to adhere overnight. 100, in a stock solution in DMSO, was diluted in serum-free/phenol red-free DMEM. […] The coverslips were washed and mounted onto microscope slides using FluorSave mounting reagent (Millipore, Darmstadt, Germany). Slides were imaged on a Leica SP5 confocal microscope.
Images were analyzed for fluorescence and puncta using ImageJ software using a non-biased, high-throughput macro. In brief, cells were selected using an expanded selection from the DAPI channel. The regions of interest were then masked, a watershed filter was applied to split adjacent cells into separate cells, and the regions of interest were applied to the 100 channel to measure fluorescence and puncta. High resolution confocal stacks were deconvolved with Hyugen's Deconvolution Software or AiryScan.
To analyze the internalization of eHsp90 in transformed cells, the 4T1 cell model was utilized.
Consider `CC(C)NCCCn1c(Sc2cc3c(cc2I)OCO3)nc2c(N)ncnc21` [PUH71], for which the “competition of binding of probe 100 to eHsp90” value was “competed”.

Still in this data set, the particulars now being: untethered Hsp90 inhibitors.
Turning to `CC(C)NCCCn1c(Sc2cc3c(cc2I)OCO3)nc2c(N)ncnc21` [PUH71], the “blocking of binding of 100 and HS-27 to eHsp90” value (“blocking” below) is “blocked”.

As for `CC(C)c1cc(-c2n[nH]c(=O)n2-c2ccc3c(ccn3C)c2)c(O)cc1O` [Ganetespib], the “blocking” value is given as “blocked”.

As for `CC1(C)CC(=O)c2c(C(F)(F)F)nn(-c3ccc(C(N)=O)c(N[C@H]4CC[C@H](O)CC4)c3)c2C1` [SNX2112], the “blocking” value is on record as “blocked”.

(Values after patent US11261187B2, “Compounds and methods for targeting HSP90” (Duke University, priority 2016, dated 2022).)
